The values that follow are results of earlier work, collected in patent publication US7947285B2, “Methods for preventing post endoscopic retrograde cholangiopancreatography pancreatitis” (priority 2003, dated 2011).

The test system of data set [1] is post-ERCP pancreatitis. The following applies: high-risk patients; two large controlled trials; cited from earlier work.
Data set [2] concerns post-ERCP pancreatitis. The following applies: prophylaxis; meta-analysis of 28 clinical trials; cited from earlier work.
The test system of data set [3] is post-ERCP pancreatitis. The following applies: cited from earlier work.
The test system of data set [4] is post-ERCP pancreatitis. The following applies: patients without pancreas divisum; retrospective review; cited from earlier work.

In the case of `CCOC(=O)c1ccc(OC(=O)CCCCCNC(=N)N)cc1` [gabexate], in data set [1], the “preventing post-ERCP pancreatitis” value was “ineffective”. Moreover, the “reducing the frequency of post-ERCP pancreatitis” value in data set [2] is listed as “effective”.

On to `C[C@@H](O)[C@@H]1NC(=O)[C@H](CCCCN)NC(=O)[C@@H](Cc2c[nH]c3ccccc23)NC(=O)[C@H](Cc2ccccc2)NC(=O)[C@@H](NC(=O)[C@H](N)Cc2ccccc2)CSSC[C@@H](C(=O)N[C@H](CO)[C@@H](C)O)NC1=O` [octreotide], for which the “effect on clinical course of post-ERCP pancreatitis” value in data set [3] (human, in vivo) is given as “has not been show to alter the clinical course”. Besides, the effect on hyperamylasemia entry in data set [3] (post-ERCP) is reported as “reduces hyperamylasemia”. In addition, the “preventing post-ERCP pancreatitis” value in data set [1] is on record as “ineffective”.

secretin: the “incidence of post-ERCP pancreatitis” value in data set [4] is recorded as “might decrease the incidence”.
